Reference: patent US20040005537A1, “Method of identifying toxic agents using differential gene expression” (priority 2000, published 2004)

Columns and labels:
[1] = grouping used to generate the distinguishing gene profiles; cited from earlier work
rat heart tissue = assay: GENECALLING differential gene expression analysis after dosing of serotonin modulating agents; assay type: in vivo, Sprague Dawley rats
Method: Control animals received sterile water or canola oil. The animals were sacrificed 24 hours following the last dose. Liver tissue was dissected from the animals, and total RNA was recovered from the dissected tissue. cDNA was prepared and the resulting samples were processed through using GENECALLING™ differential expression analysis as described in U.S. Pat. No. 5,871,697 and in Shimkets et al., Nature Biotechnology 17:798-803 (1999). The contents of these patents and publications are incorporated herein by reference in their entirety.
Thousands of gene fragments were initially found to be differentially expressed in rat heart tissue in response to serotonin modulating agents in. Genes fragments whose expression levels were modulated greater than ±1.5-fold were selected for further analysis.
Column 6 of Table 1, entitled “Function”, lists the type of classification assigned for the protein, based on its function. The 210 single nucleic acid sequences identified herein, are referred to herein as CARDIOTOX 1-210.

CC(C)CC(N(C)C)C1(c2ccc(Cl)cc2)CCC1 (stereo not drawn) [sibutramine]
classification as cardiotoxic or noncardiotoxic serotonin modulating agent [1]: noncardiotoxic
Effects on Transcription Level: Novel gene fragment, 524 bp, 86% SI to mouse F-box protein FBX6b [AF176526] (rat heart tissue; CARDIOTOX 1): +1.3 fold
Effects on Transcription Level: Novel gene fragment, 306 bp, 91% SI to mouse low density lipoprotein receptor related protein 4 [AB013874] (rat heart tissue; CARDIOTOX 2): −1.3 fold
Effects on Transcription Level: Novel gene fragment, 540 bp, 97% SI to mouse skeletal muscle alpha-actin [X03766] (rat heart tissue; CARDIOTOX 3): −1.1 fold
Effects on Transcription Level: Novel gene fragment, 80 bp (rat heart tissue; CARDIOTOX 4): −1.3 fold
Effects on Transcription Level: Novel gene fragment, 957 bp, 99% SI to kidney injury associated moleculer HW036 [V80591] (rat heart tissue; CARDIOTOX 5): −1.0 fold
Effects on Transcription Level: Novel gene fragment, 282 bp, 85% SI to human KIAA1515 protein [AB040948] (rat heart tissue; CARDIOTOX 6): −1.4 fold
Effects on Transcription Level: Novel gene fragment, 405 bp, 88% SI to human 2-oxoglutarate dehydrogenase [D10523] (rat heart tissue; CARDIOTOX 7): −1.4 fold
Effects on Transcription Level: UCP2 (rat heart tissue; CARDIOTOX 8, GenBank AB010743): −1.3 fold
Effects on Transcription Level: Plasma membrane Ca2 + ATPase-isoform 1 (rat heart tissue; CARDIOTOX 9, GenBank J03753): +1.2 fold
Effects on Transcription Level: Novel gene fragment, 242 bp, 97% SI to mouse HSP86 heat-shock protein [X16857] (rat heart tissue; CARDIOTOX 10): +1.4 fold
Effects on Transcription Level: Novel gene fragment, 280 bp, 65% SI to human TRF1-interacting, ankyrin-related ADP-ribose polymerase [AF082556] (rat heart tissue; CARDIOTOX 11): +1.2 fold
Effects on Transcription Level: Novel gene fragment, 348 bp, 88% SI to mouse Sec61 protein complex gamma subunit [U11027] (rat heart tissue; CARDIOTOX 12): +1.4 fold
Effects on Transcription Level: Novel gene fragment 553 bp, 93% SI to mouse Sid329 [AB024984] (rat heart tissue; CARDIOTOX 13): +1.1 fold
Effects on Transcription Level: Kruppel-like transcription factor (rat heart tissue; CARDIOTOX 14, GenBank AB020759): +1.1 fold
Effects on Transcription Level: Ribosomal protein L3 (rat heart tissue; CARDIOTOX 15, GenBank X62166): +1.3 fold
Effects on Transcription Level: Glucose-regulated protein (GRP) 75 (rat heart tissue; CARDIOTOX 16, GenBank S78556): +1.1 fold
Effects on Transcription Level: Immunoglobulin heavy chain binding protein (BiP) (rat heart tissue; CARDIOTOX 17, GenBank M14050): −1.1 fold
Effects on Transcription Level: Membrane-spannining proteoglycan NG2 (rat heart tissue; CARDIOTOX 18, GenBank X56541): −1.1 fold
Effects on Transcription Level: Novel gene fragment, 1294 bp, 96% SI to mouse Sui 1 (elF) homolog [AF129888] (rat heart tissue; CARDIOTOX 19): +1.1 fold
Effects on Transcription Level: Novel gene fragment, 723 bp, 85% SI to human translation initiation factor elF3 p40 subunit [U54559] (rat heart tissue; CARDIOTOX 20): −1.1 fold
Effects on Transcription Level: Novel gene fragment, 1324 bp, 76% SI to human flavoprotein subunit of complex II [D30648] (rat heart tissue; CARDIOTOX 21): +1.4 fold
Effects on Transcription Level: Novel gene fragment, 852 bp, 81% SI to human vacuolar proton-ATPase subunit M9.2 [Y15286] (rat heart tissue; CARDIOTOX 22): +1.2 fold
Effects on Transcription Level: Novel gene fragment, 178 bp, 91% SI to mouse myosin light chain-2 isoform MLC-2a [S70785] (rat heart tissue; CARDIOTOX 23): +1.4 fold
Effects on Transcription Level: Novel gene fragment, 167 bp, 90% SI to mouse Rab20 [X80332] (rat heart tissue; CARDIOTOX 24): +1.0 fold
Effects on Transcription Level: Novel gene fragment, 1070 bp, 80% SI to human muscle-specific protein [AF249873] (rat heart tissue; CARDIOTOX 25): +1.2 fold
Effects on Transcription Level: Novel gene fragment, 1143 bp, 82% SI to human sarcoma amplified sequence (SAS) [U01160] (rat heart tissue; CARDIOTOX 26): +1.3 fold
Effects on Transcription Level: Novel gene fragment, 74 bp,75% SI to human secreted protein [X30160] (from patent database)/[X97578] (from patent database)/potential cytokine) (rat heart tissue; CARDIOTOX 27): −1.3 fold
Effects on Transcription Level: Novel gene fragment, 408 bp, 90% SI to human CGI-07 protein [AF132941] (rat heart tissue; CARDIOTOX 28): −1.0 fold
Effects on Transcription Level: Novel gene fragment, 618 bp, 95% SI to rat progression related cDNA, ZNPE-120 3′ end partial sequence [patent database X90805] (rat heart tissue; CARDIOTOX 29): +1.0 fold
Effects on Transcription Level: Novel gene fragment, 717 bp (rat heart tissue; CARDIOTOX 30): +1.2 fold
Effects on Transcription Level: Novel gene fragment, 546 bp (rat heart tissue; CARDIOTOX 31): +1.3 fold
Effects on Transcription Level: Novel gene fragment, 920 bp, 91% SI to human HSPC061 [AF161546] (rat heart tissue; CARDIOTOX 32): +1.2 fold
Effects on Transcription Level: Novel gene fragment, 203 bp, 92% SI to rabbit sarcoplasmic reticulum glycoprotein [J04480] (rat heart tissue; CARDIOTOX 33): −1.2 fold
Effects on Transcription Level: Novel gene fragment, 178 bp, 68% SI to mouse IgG receptor (beta-Fc-gamma-RII)[M63159] (rat heart tissue; CARDIOTOX 34): +1.4 fold
Effects on Transcription Level: Ribosomal protein L6 (rat heart tissue; CARDIOTOX 35, GenBank X87107): +1.4 fold
Effects on Transcription Level: CAP2 protein (adenylyl cyclase-associated protein 2) (rat heart tissue; CARDIOTOX 36, GenBank U31935): +1.4 fold
Effects on Transcription Level: Alpha-platelet-derived growth factor receptor (rat heart tissue; CARDIOTOX 37, GenBank M63837): −1.1 fold
Effects on Transcription Level: Rab GD1 alpha protein (rat heart tissue; CARDIOTOX 38, GenBank X74402): −1.1 fold
Effects on Transcription Level: PKC-zeta-interacting protein (rat heart tissue; CARDIOTOX 39, GenBank Y08355): −1.2 fold
Effects on Transcription Level: ERK or MAP kinase (rat heart tissue; CARDIOTOX 40, GenBank X65198): +1.4 fold
Effects on Transcription Level: Peroxisomal multifunctional enzyme type II (rat heart tissue; CARDIOTOX 41, GenBank U37486): +1.3 fold
Effects on Transcription Level: HBP23 (heme-binding protein 23 kDa) (rat heart tissue; CARDIOTOX 42, GenBank D30035): +1.3 fold
Effects on Transcription Level: Caveolae-associated protein (rat heart tissue; CARDIOTOX 43, GenBank U90725): −1.0 fold
Effects on Transcription Level: Prenylated rab acceptor 1 (PRA1) (rat heart tissue; CARDIOTOX 44, GenBank AF025506): +1.4 fold
Effects on Transcription Level: Novel gene fragment, 337 bp, 88% SI to rabbit cardiac ryanodine receptor (RyR-2)[U50465] (rat heart tissue; CARDIOTOX 45): −1.3 fold
Effects on Transcription Level: Novel gene fragment, 81 bp, 85% SI to human titin [X90568] (rat heart tissue; CARDIOTOX 46): −1.3 fold
Effects on Transcription Level: Novel gene fragment, 428 bp, 86% SI to human titin [X90568] (rat heart tissue; CARDIOTOX 47): −1.1 fold
Effects on Transcription Level: Novel gene fragment, 374 bp, 88% SI to human titin [X90568] (rat heart tissue; CARDIOTOX 48): −1.2 fold
Effects on Transcription Level: Novel gene fragment, 428 bp, 85% SI to human titin [90568] (rat heart tissue; CARDIOTOX 49): −1.3 fold
Effects on Transcription Level: Novel gene fragment, 1216 bp, 93% SI to mouse mircotubule-associated protein (MAP) 1B protein [AF115776] (rat heart tissue; CARDIOTOX 50): −1.1 fold
Effects on Transcription Level: Novel gene fragment, 1115 bp, 83% SI to human KIAA0549 protein [AB011121] (rat heart tissue; CARDIOTOX 51): −1.4 fold
Effects on Transcription Level: Novel gene fragment, 153 bp (rat heart tissue; CARDIOTOX 52): −1.2 fold
Effects on Transcription Level: Novel gene fragment, 89 bp, 93% SI to human putative glialblastoma cell differentiation-related protein (GBDR1) [AF068195] (rat heart tissue; CARDIOTOX 53): +1.4 fold
Effects on Transcription Level: Rho-associated kinase beta (rat heart tissue; CARDIOTOX 54, GenBank U61266): −1.1 fold
Effects on Transcription Level: Adenylate kinase 3 (rat heart tissue; CARDIOTOX 55, GenBank D13062): +1.4 fold
Effects on Transcription Level: Amyloid beta-peptide binding protein (rat heart tissue; CARDIOTOX 56, GenBank AF049878): +1.3 fold
Effects on Transcription Level: Mitochondrial adenine nuleotide translocator (rat heart tissue; CARDIOTOX 57, GenBank D12771): +1.4 fold
Effects on Transcription Level: Novel gene fragment, 710 bp, 94% SI to mouse chromatin structural protein homolog Supt5 hp (Supt5 h)[U88539] (rat heart tissue; CARDIOTOX 58): +7.5 fold
Effects on Transcription Level: Novel gene fragment, 186 bp, 66% SI to human N-acetylglucosaminyltransferase 1 (GlcNAc-TI)[M55621] (rat heart tissue; CARDIOTOX 60): −1.9 fold
Effects on Transcription Level: Novel gene fragment, 238 bp, 95% SI to mouse MAP kinase-activated protein kinase 2 [X76850] (rat heart tissue; CARDIOTOX 61): −2.8 fold
Effects on Transcription Level: Novel gene fragment, 173 bp, 70% SI to G protein-coupled receptor kinase GRK4 [X97568] (rat heart tissue; CARDIOTOX 62): −5.3 fold
Effects on Transcription Level: Novel gene fragment, 133 bp, 77% SI to human apoptosis related protein hSARP3 [patent database: V19114] (rat heart tissue; CARDIOTOX 63): −2.0 fold
Effects on Transcription Level: Novel gene fragment, 477 bp, 98% SI to peroxisomal phytanoyl-CoA hydroxylase (PHYH) [AF121345] (rat heart tissue; CARDIOTOX 64): +7.0 fold
Effects on Transcription Level: Novel gene fragment, 413 bp, 95% SI to mouse dihydrolipoamide dehydrogenase (Dld) [U73445] (rat heart tissue; CARDIOTOX 65): +1.6 fold
Effects on Transcription Level: Novel gene fragment, 726 bp, 76% SI to human succinate dehydrogenase flavoprotein subunit (SDH) [L21936] (rat heart tissue; CARDIOTOX 66): −3.0 fold
Effects on Transcription Level: Novel gene fragment, 440 bp, 92% SI to mouse cytochrome c oxidase Vllc [X52940] (rat heart tissue; CARDIOTOX 67): +11.5 fold
Effects on Transcription Level: Novel gene fragment, 276 bp, 80% SI to human titin [X90568] (rat heart tissue; CARDIOTOX 68): −6.6 fold
Effects on Transcription Level: Novel gene fragment, 149 bp, 70% SI to human titin [X90568] (rat heart tissue; CARDIOTOX 69): −2.4 fold
